The values below come from US8337835B2, “Use of an endogenous ligand for peroxisome proliferator activated receptor alpha to treat liver disorders” (priority 2009, dated 2012).

The test system of one assay is hepatic steatosis. Put plainly: Portal vein infusion, liver fat / triglyceride content in zero fat diet and fasting fatty liver model. The assay is classed as in vivo, mouse.
The next assay concerns the target T1, PPARγ LBD (Homo sapiens, UniProt P37231).
T1 construct: Identical experiments were performed using the PPARδ and PPARγ LBDs; 6xHis; made in house
T1 sequence (P37231 238-503 limits assumed): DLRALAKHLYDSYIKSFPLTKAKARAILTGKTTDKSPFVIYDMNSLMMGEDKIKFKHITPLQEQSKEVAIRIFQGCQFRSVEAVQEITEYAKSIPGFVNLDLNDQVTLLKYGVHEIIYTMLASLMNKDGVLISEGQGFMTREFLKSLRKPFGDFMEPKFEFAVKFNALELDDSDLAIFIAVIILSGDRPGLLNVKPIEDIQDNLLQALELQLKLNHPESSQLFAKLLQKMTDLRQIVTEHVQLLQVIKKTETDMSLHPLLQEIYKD
Put plainly: ALPHASCREEN binding assay, PPARγ ligand binding domain. The conditions noted are these: 5 μM. On the procedure:
(§1) Binding of 16:0/18:1-GPC and known agonists to the ligand binding domain (LBD) of PPARα in the presence of various peptide motifs was determined by ALPHASCREEN™ assay (Proc Natl Acad Sci USA 105, pp. 5034-5039, 2008). Experiments used 100 nM receptor LBD, purified as 6× His tag fusion proteins (Mol Cell 17, pp. 491-502, 2005), and 20 nM of N-terminal biotinylated CBP1 peptide or other coactivator peptides in the presence of 5 μg/ml donor and acceptor beads in 50 mM MOPS (pH 7.4), 100 mM NaCl, and 0.1 mg/ml BSA for 90 min at 25° C. Signals were generated in the absence or the presence of ligand. Identical experiments were performed using the PPARδ and PPARγ LBDs.
(§2) Stealth™ siRNA oligonucleotides were used to inhibit the gene expression of mouse ChPT1 ([…]) (SEQ ID NO: 1) and CEPT1 ([…]) (SEQ ID NO: 2) were from Invitrogen (Carlsbad, Calif.). […] Expression of ACO and CPT-1 was also assessed 24 h after addition of 50 μM 16:0/18:1-GPC in a subset of Hepa 1-6 cells previously treated with CEPT1 siRNA. mRNA levels are normalized to control L32 ribosomal mRNA. […] FIGS. 6F-H show the binding of various peptide motifs to the purified PPARα (FIG. 6F), PPARδ (FIG. 6G), and PPARγ (FIG. 6H) LBD in the presence of 5 μM of the corresponding PPAR agonist or 16:0/18:1-GPC as measured by AlphaScreen assays. […]

The next assay concerns the target T2, PPARδ LBD (Homo sapiens, UniProt Q03181).
T2 construct: Identical experiments were performed using the PPARδ and PPARγ LBDs; 6xHis; made in house
T2 sequence (Q03181 211-439 limits assumed): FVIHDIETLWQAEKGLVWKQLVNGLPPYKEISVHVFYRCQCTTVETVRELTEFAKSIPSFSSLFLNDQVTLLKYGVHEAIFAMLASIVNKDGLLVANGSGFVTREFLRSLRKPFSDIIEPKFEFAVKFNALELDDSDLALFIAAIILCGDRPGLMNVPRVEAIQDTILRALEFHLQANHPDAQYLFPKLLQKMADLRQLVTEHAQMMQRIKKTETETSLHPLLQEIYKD
Kind of assay: ALPHASCREEN binding assay, PPARδ ligand binding domain. Conditions: 5 μM; compared with PPARδ activator GW0742. On the procedure: as §1, §2

As for `CCCCCCCC/C=C\CCCCCCCC(=O)O[C@H](COC(=O)CCCCCCCCCCCCCCC)COP(=O)([O-])OCC[N+](C)(C)C` [16:0/18:1-GPC, 1-palmitoyl-2-oleoyl-sn-glycerol-3-phosphocholine], in the assay on hepatic steatosis (PPARα-deficient mice, 10 mg/kg intraportal three times a day, 5 days ZFD, 24 h fast), the liver lipid content entry is recorded as “unaffected”. In addition, the liver fat content entry in the assay with hepatic steatosis (control (C57/BL6) mice, 10 mg/kg intraportal three times a day, 5 days ZFD, 24 h fast, vs vehicle) is recorded as “decreased”. The “effect of intraperitoneal administration” value with hepatic steatosis (intraperitoneal route, preliminary results (data not shown)) is on record as “no effect”. In addition, the “binding to PPARγ” value on PPARγ LBD is recorded as “does not appear to bind”. Besides, the “interaction with PPARδ” value on PPARδ LBD was “insubstantial”.
